Assay results as given in patent US20150152101A1, “ACTIVE COMPOUNDS FOR COMBATING GREASY SKIN” (L'OREAL, priority 2012, published 2015).

Legend:
Type in all cases: cell-based
[1] = system: corneodesmosin; assay: Western blot of corneodesmosin in extracts of treated Episkin reconstructed epidermis; settings: systemic treatment over 5 days, grade relative to reference, generally for the highest concentration used (tested 1 and 10 μM), (*) = most active
Procedure: (§1) The samples of reconstructed epidermis, received from the company Episkin at six days of reconstruction, were recultured as soon as received in 3.5 ml of differentiation medium (Episkin™ medium) under insert (in immersion) for 48 hours in an incubator (37° C., 5% CO2).
(§2) The epidermis samples were then placed in contact with the test compounds systemically. The Episkin™ differentiation culture medium is changed for a differentiation medium containing the test compounds with 0.1% of final DMSO vehicle. The epidermis samples were recultured in an incubator for 48 hours. A new systemic treatment is performed for a further 72 hours of culture in the incubator.
For the treatment on Episkin™, each test compound was prepared extemporaneously by weighing out and dissolving at 10 mM in DMSO, and was then used to treat 3 samples of reconstructed epidermis. Furthermore, each test compound was used in a proportion of 1 and 10 μM final in the culture medium (0.1% DMSO final). The positive controls used were vitamin D3, retinol and calcipotriol (a vitamin D3 analogue).
The epidermis samples were collected (3 epidermis samples per treatment) for histological analysis and protein extracts (the same reconstructed epidermis is used for the histological study and the protein extract). […]

[2] = system: Ki67; assay: Ki67 immunolabelling of treated Episkin reconstructed epidermis; settings: for Ki67: Episkin, systemic treatment over 5 days
Procedure: as §1, §2
(§3) For the treatment on Episkin™, each test compound was prepared extemporaneously by weighing out and dissolving at 10 mM in DMSO, and was then used to treat 3 samples of reconstructed epidermis. […] The positive controls used were vitamin D3, retinol and calcipotriol (a vitamin D3 analogue).
(§4) The epidermis samples were collected (3 epidermis samples per treatment) for histological analysis and protein extracts (the same reconstructed epidermis is used for the histological study and the protein extract).
The epidermis samples were included in OCT for freezing in liquid nitrogen and then stored at −80° C. The blocks obtained were sliced using a cryostat to a thickness of 7 μm, and the slices were dried and stored at −20° C. while awaiting immunolabelling.
The marker chosen for the immunolabellings is Ki67, which affords information regarding a possible modification of the cell proliferation in the basal layer.

[3] = system: Episkin™ reconstructed epidermis; assay: HES morphological observation of treated Episkin reconstructed epidermis; settings: systemic treatment over 5 days
Procedure: as §1, §2, §3, §4
The morphological control of the treated reconstructed epidermis samples was performed by staining with HES (haematoxylin-eosin-saffron) according to a standard protocol on histological slices of the samples included in paraffin (toluene bath: three times 15 minutes; 100° alcohol baths: twice for 1 minute; 95° alcohol baths: 1 minute; rinsing in water baths; haematoxylin bath: once for 2 minutes; rinsing in water baths; short dipping in a hydrochloric acid bath; rinsing in water; eosin bath: once for 1 minute; rinsing in water; short dipping in a 100° alcohol bath; saffron bath (5 minutes); short dipping in a 100° alcohol bath; toluene bath: three times for 2 minutes).

[4] = grade relative to reference, generally for the highest concentration used (tested 1 and 10 μM), (*) = most active

With `COc1cccc(C2C3=C(Nc4c2c(=O)n(C)c(=O)n4C)c2ccccc2C3=O)c1` (centres unmarked) [Compound (1)] the CDSN [1] was “++ (*)”.
Compound `Cn1c2c(c(=O)n(C)c1=O)C(c1cccc(O)c1)C1=C(N2)c2ccccc2C1=O` (centres unmarked) [Compound (2)] has a Ki67 ([2]; grade relative to reference, generally for the highest concentration used (tested 1 and 10 μM)) of 0.
In the case of `Cn1c2c(c(=O)n(C)c1=O)C(c1ccc(O)cc1)C1=C(N2)c2ccccc2C1=O` (centres unmarked) [Compound (5)], the “Ki67 labelling (FIG. 2)” value ([2]; Episkin treated in the absence and presence of compound, result in words) is reported as “marked, or even occasionally total, decrease of the Ki67 labelling”.
With `COc1cc(C2C3=C(Nc4c2c(=O)n(C)c(=O)n4C)c2ccccc2C3=O)cc(OC)c1O` (centres unmarked) [Compound (6)] the HES [3, 4] was “++ (*)”.
Work on `CC1=C(/C=C/C(C)=C/C=C/C(C)=C/CO)C(C)(C)CCC1` [Retinol] yielded a Ki67 ([2]; 100 μM) of 0 and an HES ([3]; 100 μM) of 0.
For `C=C1CC[C@H](O)C/C1=C/C=C1\CCC[C@]2(C)[C@@H]([C@H](C)CCCC(C)C)CC[C@@H]12` [Vitamin D3], the HES [3, 4] was 0 and the CDSN [1] was 0.
